Experiments:
[1] = Miscibility study in ETRO 4+; assay type: physicochemical; details: 1 wt. % in ETRO 4+, mixed at 60° C. for 1 h, left 24 h before observation
Description: Synthesised ionic liquids (1 wt. %) were mixed with ETRO 4+ solution at 60° C. for 1 h, and left to sit for 24 h before observation.

[2] = High Frequency Reciprocating Rig (HFRR) tribology test; details: for Friction coefficient behaviour over contact time / friction reduction compared to the baseline fluid / wear scar diameter reduction compared to the baseline fluid: 1 wt % in PETRONAS LB 25 polyol ester; for Friction coefficient behaviour over contact time: vs baseline fluid
Description: (§1) High Frequency Reciprocating Rig (HFRR): tribology test rubbing of ball to disc metal specimens, under pure sliding contact (boundary lubrication regime), load at 400 g, frequency at 20 Hz, temperature at 120° C. for 60 mins. Only visually soluble solutions were evaluated, therefore, only Formulation 2 and Formulation 3 were tested. Reported values were the average of minimum 2 repeat runs.
as §1, with “was” for “and Formulation 3 were”, “replicate” for “repeat”
High Frequency Reciprocating Rig (HFRR): tribology test rubbing of ball to disc metal specimens, under pure sliding contact (boundary lubrication regime), load at 400 g, frequency at 20 Hz, temperature at 120° C. for 60 mins. Reported values were the average of minimum 2 replicate runs.

[3] = Experimental solubility at 1 wt % in lubricant base oils; assay type: physicochemical
Description: ILN18-5B-DC12 was mixed in mineral base oil Group III+ (ETRO 4+) and PETRONAS LB 25 polyol ester (and their mixtures) at 1 wt. % concentration to assess solubility and tribology evaluation. Samples were prepared by mixing the solutions at 60° C. for 1 h.
Samples were prepared by mixing the solutions at 60° C. for 1 h.
ILN18-MECA-1 was mixed in mineral base oil Group III+(ETRO 4+) and PETRONAS LB 25 polyol ester at 1 wt % concentration respectively to assess solubility and tribology evaluation. Samples were prepared by mixing the solutions at 60° C. for 1 h.

[4] = Thermo-gravimetric analysis under nitrogen (ashless nature); assay type: physicochemical
Description: The ashless nature of the formed ionic liquid was confirmed by thermo-gravimetric analysis under nitrogen (0.4788 wt. % residue).
The ashless nature of the formed ionic liquid was confirmed by thermo-gravimetric analysis under nitrogen (0.47271 wt. % residue).

[5] = 1 wt % in ETRO 4+ (89%) and LB 25 (10%), HFRR 400 g, 20 Hz, 120° C., 60 mins
[6] = HFRR 400 g, 20 Hz, 120° C., 60 mins

Row | Molecule | Appearance (miscibility) [1] | Friction coefficient behaviour over contact time [2] | friction reduction compared to the baseline fluid [2, 6] | wear scar diameter reduction compared to the baseline fluid [2, 6] | residue in thermo-gravimetric analysis [4] | other results
1 | CC(C)(COC(=O)CCCCCCCCC(=O)[O-])COC(=O)CCCCCCCCC(=O)[O-].CCCCCCCC[N+](C)(CCCCCCCC)CCCCCCCC.CCCCCCCC[N+](C)(CCCCCCCC)CCCCCCCC [ILN18-5B-DC10] | Insoluble (2 separate phases) |  |  |  |  | 
2 | CC(C)(COC(=O)CCCCCCCCCCC(=O)O)COC(=O)CCCCCCCCCCC(=O)O [ILN18-5B-DC12] |  | significant friction reduction | 67% | 59% | 0.4788 wt. % | friction reduction compared to baseline [2, 5]: 55%; wear scar diameter reduction compared to baseline [2, 5]: 57%; Experimental solubility ([3]; Formulation 1: 1 wt % in Group III Mineral Oil (ETRO 4+), mixed at 60° C. for 1 h): Insoluble; Experimental solubility ([3]; Formulation 2: 1 wt % in PETRONAS polyol ester LB 25, mixed at 60° C. for 1 h): Soluble, clear solution; Experimental solubility ([3]; Formulation 3: 1 wt % in ETRO 4+ (89%) and LB 25 (10%), mixed at 60° C. for 1 h): Soluble, clear solution
3 | CCCCCCCC[N+](C)(CCCCCCCC)CCCCCCCC.CCCCCCCC[N+](C)(CCCCCCCC)CCCCCCCC.O=C([O-])CCCCCCCCCCC(=O)[O-] [ILN18-DC12, reference compound] | Insoluble (2 separate phases) |  |  |  |  | 
4 | CCCCCCCCC(=O)OC(CCCCCC)CCCCCCCCCCC(=O)[O-].CCCCCCCC[N+](C)(CCCCCCCC)CCCCCCCC (stereo not shown) [ILN18-MECA-4] | Clear solution |  |  |  |  | 
5 | tris-(trioctyl methylammonium) trisebacate [ILN18-6BT-DC10] |  | significant friction reduction | 57% | 58% | 0.4727 wt. % | 

Reference: patent publication US12686832B2, “Ashless ionic liquid” (PETROLIAM NASIONAL BERHAD (PETRONAS), priority 2022, dated 2026)
